Data reported in patent US6946458B2, “N-thiolated beta-lactams: novel antibacterial agents for methicillin-resistant Staphylococcus aureus” (University of South Florida, priority 1999, dated 2005).
Read-outs that look alike come from different tables or passages of the source.

How the values were obtained:
Assay in all cases: Kirby-Bauer agar disk diffusion
[1] = test system: MRSA USF659; format: cell-based, Staphylococcus aureus; set-up: Kirby-Bauer Disc Diffusion Test Results: unit not given here; conditions: for zone of inhibition at 20 µg/disc: Staphylococcus aureus, MRSA
How it was run: (§1)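 Read-out is the mean diameter (mm, n=3) of the zone without bacterial growth 24 h after applying a 6-mm disk carrying 20 μg of compound to an agar plate of β-lactamase-producing MRSA.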

[2] = test system: MRSA USF657; format: cell-based, Staphylococcus aureus; set-up: Kirby-Bauer Disc Diffusion Test Results: unit not given here; conditions: for zone of inhibition at 20 µg/disc: Staphylococcus aureus, MRSA
How it was run: as §1

[3] = test system: MRSA USF654; format: cell-based, Staphylococcus aureus; set-up: Kirby-Bauer Disc Diffusion Test Results: unit not given here; conditions: for zone of inhibition at 20 µg/disc: Staphylococcus aureus, MRSA
How it was run: as §1

[4] = test system: MRSA USF658; format: cell-based, Staphylococcus aureus; set-up: Kirby-Bauer Disc Diffusion Test Results: unit not given here; conditions: for zone of inhibition at 20 µg/disc: Staphylococcus aureus, MRSA
How it was run: as §1

[5] = test system: MRSA USF652; format: cell-based, Staphylococcus aureus; set-up: Kirby-Bauer Disc Diffusion Test Results: unit not given here; conditions: for zone of inhibition at 20 µg/disc: Staphylococcus aureus, MRSA
How it was run: as §1

[6] = test system: MRSA USF653; format: cell-based, Staphylococcus aureus; set-up: Kirby-Bauer Disc Diffusion Test Results: unit not given here; conditions: for zone of inhibition at 20 µg/disc: Staphylococcus aureus, MRSA
How it was run: as §1

[7] = test system: MRSA USF655; format: cell-based, Staphylococcus aureus; set-up: Kirby-Bauer Disc Diffusion Test Results: unit not given here; conditions: for zone of inhibition at 20 µg/disc: Staphylococcus aureus, MRSA
How it was run: as §1

[8] = test system: S. simulans (ATCC 11631); format: cell-based, Staphylococcus simulans; conditions: 6-mm disks, 20 μg test compound
How it was run: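 Agar disk diffusion used 6-mm air-dried disks carrying 20 μg of compound. Values are mean diameters (mm) of the growth-inhibition zone at 24 h, from triplicate experiments. S. epidermidis and S. simulans were clinical isolates.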

[9] = test system: N. gonorrhoeae; format: cell-based, Neisseria gonorrhoeae; conditions: Neisseria gonorrhoeae; Table 1; 6-mm disks, 20 μg test compound, 24 h, triplicate; β-lactamase positive; read-out: zone of growth inhibition, average diameter
How it was run: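 β-lactamase-positive N. gonorrhoeae on agar plates with 6-mm disks loaded with 20 μg compound; zone diameter of growth inhibition (mm) read after 24 h, averaged over triplicate experiments.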

[10] = Table 1, 6-mm disks, 20 μg test compound, 24 h, triplicate, read-out: zone of growth inhibition, average diameter
[11] = Table 4, 20 μg disk loading, read-out: Zones of Inhibition
[12] = Table 6, 20 μg disk loading, read-out: The Zone of Inhibition
[13] = Table 3, 6-mm disks, 20 μg test compound, 24 hours
[14] = Table 5, beta-lactamase producing strain

CC1(C)S[C@@H]2[C@H](NC(=O)Cc3ccccc3)C(=O)N2[C@H]1C(=O)O [PenG, penicillin G, reference compound]
zone of inhibition at 20 µg/disc [1, 10]: 15 mm | zone of inhibition at 20 µg/disc [1, 11]: 15 mm | zone of inhibition at 20 µg/disc [1, 12]: 16 mm | zone of growth inhibition, average diameter [1, 13]: 15 mm | Kirby-Bauer Disc Diffusion Test Results [1, 14]: 16 | zone of inhibition at 20 µg/disc [2, 10]: 12 mm | zone of inhibition at 20 µg/disc [2, 11]: 12 mm | zone of inhibition at 20 µg/disc [2, 12]: 12 mm | zone of growth inhibition, average diameter [2, 13]: 12 mm | Kirby-Bauer Disc Diffusion Test Results [2, 14]: 12 | zone of inhibition at 20 µg/disc [3, 10]: 10 mm | zone of inhibition at 20 µg/disc [3, 11]: 9 mm | zone of inhibition at 20 µg/disc [3, 12]: 9 mm | zone of growth inhibition, average diameter [3, 13]: 10 mm | Kirby-Bauer Disc Diffusion Test Results [3, 14]: 10 | zone of inhibition at 20 µg/disc [4, 10]: 19 mm | zone of inhibition at 20 µg/disc [4, 11]: 19 mm | zone of inhibition at 20 µg/disc [4, 12]: 18 mm | zone of growth inhibition, average diameter [4, 13]: 19 mm | Kirby-Bauer Disc Diffusion Test Results [4, 14]: 18 | zone of inhibition at 20 µg/disc [5, 10]: 8 mm | zone of inhibition at 20 µg/disc [5, 11]: 8 mm | zone of inhibition at 20 µg/disc [5, 12]: 8 mm | zone of growth inhibition, average diameter [5, 13]: 8 mm | Kirby-Bauer Disc Diffusion Test Results [5, 14]: 8 | zone of inhibition at 20 µg/disc [6, 10]: 16 mm | zone of inhibition at 20 µg/disc [6, 11]: 15 mm | zone of inhibition at 20 µg/disc [6, 12]: 15 mm | zone of growth inhibition, average diameter [6, 13]: 16 mm | Kirby-Bauer Disc Diffusion Test Results [6, 14]: 15 | zone of inhibition at 20 µg/disc [7, 10]: 14 mm | zone of inhibition at 20 µg/disc [7, 11]: 14 mm | zone of inhibition at 20 µg/disc [7, 12]: 13 mm | zone of growth inhibition, average diameter [7, 13]: 14 mm | Kirby-Bauer Disc Diffusion Test Results ([7]; Table 5): 13 | zone of inhibition at 20 µg/disc ([8]; Staphylococcus simulans, ATCC11631, Table 1, 24 h, triplicate, read-out: zone of growth inhibition, average diameter): 13 mm | zone of growth inhibition, average diameter ([8]; Table 3, 24 hours): 13 mm | zone of inhibition at 20 µg/disc [9]: 0 mm
